Measured values: patent publication US20190070170A1, “METHOD OF S[…]-1” (Macau University of Science and Technology, priority 2017, published 2019)

How the values were obtained:
PGE2 = assay: RNA interference experiment of mPGES-1: PGE2 production in mPGES-1 knockdown RAW264.7 cells; assay type: cell-based, mouse; details: mPGES-1 siRNA RAW264.7 cells; SIN 640 μM or DEX 0.5 μM 1 h, LPS 10 ng/mL 18 h
Experimental: RAW264.7 cells were transfected with ON-TARGETplus SMARTpool mPGES-1 siRNA (mPGES-1 siRNA) or nonspecific siRNA (NS siRNA) using HiPerFect transfection reagent according to the manufacturer's recommended protocols. After 24 h of transfection, the cells were treated with or without SIN (640 μM) or DEX (0.5 μM) in complete growth medium. After 1 h, all groups were stimulated with LPS (10 ng/mL) for 18 h except the control group. Then the cell culture media were collected and stored at −20° C. for later analysis of the levels of PGE2. Cells were harvested for qRT-PCR, the mouse primers used are listed as follows: […]

COX-2 = COX-2 protein expression in hind paws of CIA DBA/1 mice; assay type: in vivo; details: SIN 100 mg/kg i.p.
Experimental: Female DBA/1 mice (8-9 weeks old) were purchased from Shanghai SiLaike (SLAC) Laboratory Animal Company (Shanghai, China) and fed with a chow diet and water at room temperature. Equal volume of complete Freuend's adjuvant (CFA) and Bovine Type II Collagen (CII) were mixed and emulsified using a homogenizer (13,000 rpm) on ice. On day 0, DBA/1 mice were immunized by injecting 50 μl of CII in CFA in the tail, approximately 2 cm from the base of the tail. […] The incidence of joint swelling in each group was recorded every two days since drug treatment. […]
Frozen paws were pulverized in liquid nitrogen using a stainless steel mortar and pestle, then re-suspended in 8 volumes of ice-cold PBS from Invitrogen (San Diego, Calif., USA) with 2.6 mM DTT from Promega (Madison, Wis., USA) and 2×Complete Protease Inhibitor mixture from Roche (Mannheim, Germany), and homogenized on ice bath using a tissue homogenizer from T25 digital, IKA (Stanfen, Germany) at 10,000 rpm/min for 5 min. […] The protein concentrations were measured using a Bio-Rad protein assay kit (Hercules, Calif., USA). […]
(§1) Whole-cell and nuclear proteins were obtained using RIPA lysis buffer (CST, Boston, Mass., USA) and Nuclear and Cytoplasmic Extraction Reagents kit from Thermo Scientific (Asheville, N.C., USA), respectively. […] The levels of protein expression were measured using Odyssey v3.0 software from Li-COR (Lincoln, Nebr., USA).

[1] = system: carrageenan-induced paw edema; assay: Carrageenan-induced rat paw edema model; assay type: in vivo, SD rats; details: SIN 25, 50 and 100 mg/kg i.p. 2 h before carrageenan
Experimental: The model of carrageenan-induced paw edema was performed with SD rats (150-200 g). […] Briefly, rats were fasted for 12 h before experiment and intraperitoneal injection was performed with three different doses (25, 50 and 100 mg/kg) of SIN, or DEX (reference drug, 2 mg/kg) or 0.9% saline (Vehicle and Normal group rats), at 2 h prior to the induction of paw edema. Paw edema was induced by subcutaneous injection of 100 μl of 1% (w/v) freshly prepared λ-carrageenan (Sigma, St Louis, Mo., USA) diluted in saline in the right hind foot pad. 100 μl sterile saline was injected to the rats in the right hind paw as normal control. Paw volumes (ml) of right hind foot of each rat were measured using a plethysmometer (type 7150; UGO Basile, Comerio, Italy) at 0 h (before carrageenan injection) and then again at 1, 2, 3 and 4 h after the injection of carrageenan or saline. The percentage of paw edema of the right hind paws of all groups were calculated at different time points by the following equation: Swelling ratio in each time points=(the paw volume after injection−the paw volume before injection)/the paw volume before injection×100

p65 = assay: Nuclear translocation of p65 in LPS-stimulated RAW264.7 cells (immunofluorescence); assay type: cell-based, mouse; details: 640 μM SIN 1 h, then LPS
Experimental: RAW 264.7 cells were seeded on glass coverslip at a density 2.0×10^5 cells/well in 6-well plates and incubated for 24 h. Cells were pretreated with 640 μM SIN for 1 h and followed stimulated by LPS (100 ng/ml) for another 1 h. Rat primary peritoneal macrophages were grown on glass coverslip at a density 4.5×10^6 cells/well in 6-well plates and pretreated with 640 μM SIN for 1 h, and then challenged with LPS (1 μg/ml) for another 30 min (for NF-κB) or 2 h (for C/EBPβ). Cells were fixed with 4% paraformaldehyde for 30 min at room temperature and then blocked for 1 h with 5% BSA in PBS containing 0.1% Triton X-100. Then incubated with a primary antibodies for overnight and followed by Alexa Fluor 594-labeled goat anti-rabbit IgG. Cells were washed three times, and stained with DAPI for 30 min. After a wash step, cells were fixed on the slide and the images were acquired using a LeicaDM2500 fluorescent microscope (Leica Microsystems GmbH, Wet-zlar, Germany).

p-cPLA2 = p-cPLA2 protein expression in LPS-activated rat peritoneal macrophages (western blotting); assay type: cell-based; details: SIN or DEX 1 h, LPS 24 h
Experimental: Sprague-Dawley (SD) rats from the University of Hong Kong were housed in cages with free access to food and water. Peritoneal macrophages of SD rats were isolated as described in Liu J. et al., Pharmacological research 2016, 111:303-315. Briefly, untreated rats were sacrificed and after laparotomy, about 50 ml cold sterile Hank's balanced salt solution (HBSS) was used to lavage the peritoneal cavity at twice, and then the peritoneal lavage fluid was collected and centrifuged at 1500 rpm for 10 min. The cell pellets was suspended at a density 1.5×10^6 cells/ml in pre-hearted DMEM medium with 10% heat-inactivated FBS, penicillin G (100 units/ml), streptomycin ([…]), and L-glutamine (2 mM), followed by seeding in 6-well plates at a density of 4.5×10^6 cells and incubation for 2 h. Then the medium were discarded to remove the non-adherent cells. The adherent cells were further washed for two times with pre-heated DMEM medium to remove floating cells. Next, cells were pre-treated with various concentration of SIN for 1 h, followed by stimulation with LPS (1 μg/ml).
as §1

COC1=C[C@@H]2[C@@H]3Cc4ccc(OC)c(O)c4[C@]2(CCN3C)CC1=O [SIN, sinomenine]
change of the compound's inhibitory effect on PGE2 production by mPGES-1 knockdown (PGE2): not affected | COX-2 expression in paw tissues (COX-2): did not produce observable changes | paw edema (percentage of increase in paw volume) ([1]; at 2, 3 and 4 h): successfully reduced paw edema in a dose dependent manner | paw edema (percentage of increase in paw volume) ([1]; at 1 h): no effects | nuclear translocation of p65 (p65): did not produce observable effects | p-cPLA2 protein expression (p-cPLA2): did not suppress
